How the values were obtained:
[1] = tested on: Rhipicephalus sanguineus; assay: Tick contact behavioral assay (TCBA), excitatory response in glass vials; details: 24 h post-treatment
Experimental: Another screening method used to test compounds of the present invention is the tick contact behavioral assay (TCBA). Compounds that elicit excitatory activity in ticks should increase their motility, thus increasing the parasite's chances of encountering fipronil if fipronil is present.
The TCBA was performed on Rhipicephalus sanguineus in glass vials. Briefly, a paper disc is treated with the desired amount of test compound and placed into the vial with approximately ten ticks. The ticks are observed for excitatory response but are not otherwise stimulated for evaluation.
From these observations, an EC50 for excitatory response is established. Observations were made at 4 h and 24 h post-treatment. […]

[2] = tested on: Rhipicephalus sanguineus; assay: Tick mortality in combination with fipronil (25 ppm), 100% mortality at 6 hours; details: dose of compound combined with fipronil 25 ppm producing 100% mortality in 6 hours
Experimental: Observations were made at 4 h and 24 h post-treatment.
The compounds were then combined with fipronil (25 ppm) and tested for 100% mortality at 6 hours.

[3] = pH about 5.0 to about 6.0; cited from earlier work
[4] = 14C radiolabeled drug, spot-on, beagle dogs; cited from earlier work

Structure (SMILES)	TCBA Assay EC50 (@ 24 h, ppm) [1] [ppm]	Fipronil combination (25 ppm) (6 h mortality) Dose (ppm) [2] [ppm]	stability at pH of about 5.0 to about 6.0 [3]	time persistently detected in whole skin after treatment [4]
Cc1cccc2c1C(c1ncc[nH]1)CC2 (centres unmarked) [1H-imidazole, 2-(2,3-dihydro-7-methyl-1H-inden-1-yl)]	6			
Cc1cccc2c1CCCC2c1ncc[nH]1 (centres unmarked) [2-(5-methyl-1,2,3,4-tetrahydronaphthalen-1-yl)-1H-imidazole]	6	25		
Cc1ccc(/N=C/N(C)/C=N/c2ccc(C)cc2C)c(C)c1 [Amitraz, amitraz]	1.6	12.5	degrade	
Cc1cccc2c1CCC2c1ncc[nH]1 (centres unmarked) [ML-449, 1H-imidazole, 2-(2,3-dihydro-4-methyl-1H-inden-1-yl)]	6	25		
Cc1cccc(C(C)c2ncc[nH]2)c1C (centres unmarked) [demiditraz]	5	12.5		
N#Cc1nn(-c2c(Cl)cc(C(F)(F)F)cc2Cl)c(N)c1[S+]([O-])C(F)(F)F (centres unmarked) [fipronil, 5-amino-3-cyano-1-(2,6-dichloro-4-trifluoromethylphenyl)-4-trifluoromethylsulfinylpyrazole]				up to 56 days
